Results from patent US20250136722A1, “CYTOTOXICITY TARGETING CHIMERAS” (GLAXOSMITHKLINE INTELLECTUAL PROPERTY DEVELOPMENT LIMITED, priority 2021, published 2025).

Assays:
[1] = system: endogenous target monocytes in human PBMC; test: PBMC ex vivo monocyte depletion flow cytometry assay (Example 200); type: cell-based; conditions: with anti-cotinine antibody SEQ ID NO: 11/12, 18-24 hours, read-out: Ex Vivo Depletion Assay pEC50 (converted)
Protocol: A human PBMC (peripheral blood mononuclear cells) monocyte depletion flow cytometry assay was developed to screen compounds in a 384-well plate format. This assay incorporated endogenous natural killer cells to deplete endogenous target monocytes.
To screen compounds in the human PBMC monocyte depletion flow cytometry assay, 11-point dose-response curves were made from 1 mM stocks in neat DMSO by serially diluting an ARM compound of Formula (I) four-fold into a 384-well plate row-wise. These serially diluted compounds were then stamped into a flat bottom polypropylene 384-well plate (Greiner Bio-One) at 100 nL/well. Fifty microliters of 30 μg/mL anti-cotinine antibody having a heavy chain sequence of SEQ ID NO: 11 and a light chain sequence of SEQ ID NO: 12 (rabbit variable region with human IgG1 Fc domain containing a DE mutation (S239D/1332E)) that had been diluted in assay medium (RPMI 1640 (Gibco) containing 10% fetal bovine serum (Gibco), 1% Glutamax (Gibco) and 1% sodium pyruvate (Corning) was added to the wells of the plate. The plate was centrifuged for 1 min at 500 rpm (revolutions per minute) and then shaken for 5 min at room temperature. The plate was incubated for 15 minutes at 37° C./5% CO2.
Frozen PBMC cells (HemaCare BioResearch) were thawed and centrifuged at 1,200 rpm for 4 minutes. The cells were diluted to a cell density of 2×10^6 cells/mL in assay medium. Fifty microliters of the diluted cells were added to the wells of the plate. The plate was centrifuged for 1 min at 500 rpm and incubated for 18-24 hours at 37° C./5% CO2.
After 18-24 hours incubation, 2 μL of 6.25 μg human FC block (BD Pharmingen) that was diluted in assay medium was added to the wells of the plate. The plate was centrifuged for 1 minute at 500 rpm and then incubated at room temperature for 15 minutes. Five microliters of 750 nM Helix NP NIR (Biolegend) that had been diluted in assay medium was added to the wells of the plate. Nine microliters of antibody cocktail containing 1/5 diluted fluorescein isothiocyanate (FITC) labeled anti-CD45 antibody (Beckman Coulter), PC7 labeled anti-CD14 antibody (Beckman Coulter) and phycoerythrin (PE) anti-CD4 antibody (Beckman Coulter) was then added to the wells of the plate. The plate was centrifuged for 1 min at 500 rpm and incubated for 30 minutes at 4-8° C. Samples from the plate were run on BD FACS Canto II flow cytometer and data was analyzed using FlowJo software.
ARMs compounds of Formula (I) of the invention were tested for the ability to deplete monocytes in the above assay in one or more experimental runs and the results are shown in Table 3 below. Potency of the compounds of the invention is reported as a pEC50 value. The pEC50 value is the negative log of the EC50 value, wherein the EC50 value is the half maximal effective concentration measured in molar (M). For compounds tested in more than one experimental run, the pEC50 value is reported as an average or as the individual values measured

[2] = molecular target: Anti-cotinine antibody (SEQ ID NO: 11 / SEQ ID NO: 12, rabbit variable region with human IgG1 Fc domain); test: Binding of anti-cotinine antibody to ARM compounds by SPR, Biacore T200, 37° C. (Example 202); conditions: pH 7.4, rabbit variable region/human IgG1 Fc antibody captured on protein A
Outline: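 Antibody captured on protein A chip. Compounds injected (3-fold, 5-point, top 200 nM) at 100 μL/min with 200 s association and 2000 s dissociation, at 37° C. in HEPES pH 7.4 buffer with 1% DMSO. Double-referenced data fit to 1:1 kinetics. Kd = koff/kon, reported as pKd, averaged over runs.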

[3] = molecular target: human alpha1 nicotinic acetylcholine (nACh) receptor (Homo sapiens, UniProt P02708+Q07001); test: Nicotinic acetylcholine receptor antagonism assay, IONFlux automated patch clamp (Example 203); type: cell-based
human alpha1 nicotinic acetylcholine (nACh) receptor, sequence (P02708 21-457): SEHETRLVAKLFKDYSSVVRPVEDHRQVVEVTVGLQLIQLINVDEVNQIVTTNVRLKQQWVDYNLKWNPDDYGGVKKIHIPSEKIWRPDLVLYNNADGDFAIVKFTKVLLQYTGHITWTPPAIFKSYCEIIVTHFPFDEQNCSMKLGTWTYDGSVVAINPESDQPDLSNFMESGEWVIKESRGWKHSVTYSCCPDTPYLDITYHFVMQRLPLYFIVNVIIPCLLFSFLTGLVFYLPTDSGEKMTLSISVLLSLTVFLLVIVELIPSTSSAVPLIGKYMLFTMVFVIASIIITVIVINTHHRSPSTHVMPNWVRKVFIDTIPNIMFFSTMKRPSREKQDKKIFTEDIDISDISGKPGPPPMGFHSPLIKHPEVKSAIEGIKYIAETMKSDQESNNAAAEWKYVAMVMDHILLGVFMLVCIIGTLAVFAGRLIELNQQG
human alpha1 nicotinic acetylcholine (nACh) receptor, sequence (P11230 24-501 partner): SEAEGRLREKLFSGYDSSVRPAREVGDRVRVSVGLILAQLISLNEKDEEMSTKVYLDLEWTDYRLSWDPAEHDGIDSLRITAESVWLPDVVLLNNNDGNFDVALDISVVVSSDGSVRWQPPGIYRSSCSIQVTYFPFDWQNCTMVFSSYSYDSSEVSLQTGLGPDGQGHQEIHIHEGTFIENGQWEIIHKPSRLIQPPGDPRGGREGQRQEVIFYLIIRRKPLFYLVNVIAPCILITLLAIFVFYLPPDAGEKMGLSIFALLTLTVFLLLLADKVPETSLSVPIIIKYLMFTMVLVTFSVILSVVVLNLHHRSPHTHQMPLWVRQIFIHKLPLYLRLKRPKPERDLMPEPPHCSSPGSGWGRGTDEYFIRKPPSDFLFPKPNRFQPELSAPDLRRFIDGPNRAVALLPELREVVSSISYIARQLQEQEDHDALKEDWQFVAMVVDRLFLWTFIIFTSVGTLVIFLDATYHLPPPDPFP
human alpha1 nicotinic acetylcholine (nACh) receptor, sequence (Q07001 22-517): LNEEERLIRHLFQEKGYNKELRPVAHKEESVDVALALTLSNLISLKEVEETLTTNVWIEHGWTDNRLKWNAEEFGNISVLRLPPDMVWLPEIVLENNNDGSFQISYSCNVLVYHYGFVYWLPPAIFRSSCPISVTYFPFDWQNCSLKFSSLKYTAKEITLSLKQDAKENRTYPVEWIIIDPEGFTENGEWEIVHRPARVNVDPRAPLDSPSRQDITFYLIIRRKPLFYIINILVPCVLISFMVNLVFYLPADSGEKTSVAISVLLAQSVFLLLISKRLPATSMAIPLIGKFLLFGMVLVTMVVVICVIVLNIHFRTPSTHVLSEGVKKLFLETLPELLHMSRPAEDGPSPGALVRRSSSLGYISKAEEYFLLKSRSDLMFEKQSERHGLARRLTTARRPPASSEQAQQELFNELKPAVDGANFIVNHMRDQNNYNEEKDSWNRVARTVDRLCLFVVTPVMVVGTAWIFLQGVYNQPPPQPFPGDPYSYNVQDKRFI
Outline: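 Human α1 nAChR-expressing cells were preincubated with compound (top 10 μM or 100 μM), then stimulated with 10 mM ACh; peak currents were recorded by IONFlux automated patch clamp. Percent inhibition versus ACh-alone control was vehicle- and rundown-corrected, then fitted to give IC50, with maximal antagonism at the top concentration; recordings with control current <500 pA were excluded.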

[4] = system: CCR2 expressing cells (CD11b+Ly6c+ Hi) in peripheral blood; test: In vivo depletion assay, flow cytometry of peripheral blood (Example 201); design: species or system Human CCR2 (hCCR2) knock-in mice (C57 background); conditions: hCCR2 knock-in mice; IV 0.1 mpk compound + 10 mpk anti-cotinine antibody (SEQ ID NO: 13/14); peripheral blood at 48 hr
Protocol: Stock solution preparation: Stock solutions of compounds of Formula (I) were prepared at 20 mg/mL and 100 mg/mL in DMSO for PK/PD and dose tolerability studies respectively. Stock solutions were stored at −20° C. until further usage.
Formulations preparation: On the day of experiment, the stock solution of the compound of Formula (I) was removed from storage at −20° C. and thawed at room temperature. Anti-cotinine antibody having a heavy chain sequence of SEQ ID NO: 13 and a light chain sequence of SEQ ID NO: 14 (rabbit variable region sequence with mouse IgG2a Fc domain), if required was removed from storage at −80° C. and thawed at room temperature. Antibody vials were immediately transferred into wet ice after thawing. Compounds of Formula (I) were further diluted in DMSO as per experimental requirements.
Formulation composition: The formulation composition was Saline:DMSO:PBS. Saline was added based on the quantity required and then stock solution of the compound of Formula (I) prepared in DMSO, followed by addition of antibody in PBS. Formulations were incubated at room temperature for 30 minutes before administration to the mouse. DMSO was used at 1 to 2% (v/v) in the final formulation.
After bleeding, each mouse was sacrificed by cervical dislocation.
CCR2 depletion in peripheral blood was determined by flow cytometry. Briefly, peripheral blood was collected from all animals at the end of study termination and processed. Blood samples were lysed using 1× RBC Lysis buffer and the resulting cell pellet was washed twice in FACS buffer (HBSS containing 5% FBS). Cells were subjected to Fc blocking using mouse Fc block from Biolegend (Trustain, anti-mouse CD16/32, Cat: 101319) to block non-specific binding followed by surface staining for immune markers (CD45, CD3, CD11b, Ly6C, human CCR2). Surface staining was done for 30 minutes in ice and cells were washed twice to remove unbound antibodies. Cells were stained with 7AAD to determine viability and acquired on BD FACSVerse flow cytometer. Appropriate FMO controls and single-color controls were included in the experiment for gating and compensation respectively.
Percent depletion of CD11b+Ly6c+ Hi cells and CCR2 expression for the different treatment groups was determined.

Row | pKd of Antibody for ARM Compound of Formula (I) [2] | Emax at 10 µM ([3]; maximum percentage antagonism at maximum concentration tested 10 μM, read-out: Maximum Response (%)) [%] | IC50 ([3]; nAChR antagonism, ACh stimulated, patch clamp) [nM] | SMILES | EC50 [1] [nM] | % Depletion of CCR2 expressing cells [4] [%]
1 | 9.3615 | 20.1 | > 10000 | CC(C)N(C)[C@@H]1CCC(N2CC[C@H](Nc3ncnc4ccc(C(F)(F)F)cc34)C2=O)[C@H](NC(=O)CCOCCOCCOCCOCCOCCOCCNC(=O)[C@H]2CC(=O)N(C)[C@@H]2c2cccnc2)C1 (some centres unmarked) [Example 41] | 2.51 | –
2 | 9.321 | – | – | CC(C)N(C)[C@@H]1CC[C@H](N2CC[C@H](Nc3ncnc4ccc(C(F)(F)F)cc34)C2=O)[C@H](NC2CCN(C(=O)CCOCCOCCOCCOCCNC(=O)[C@H]3CC(=O)N(C)[C@@H]3c3cccnc3)CC2)C1 [Example 69] | 1.58 | 98.59
3 | – | – | – | CC(C)N(C)[C@@H]1CC[C@H](N2CC[C@H](Nc3ncnc4ccc(C(F)(F)F)cc34)C2=O)[C@H](NC(=O)[C@H]2CC[C@H](N3CCN(S(=O)(=O)C4CCN(C(=O)[C@H](C)NC(=O)[C@H]5CC(=O)N(C)[C@@H]5c5cccnc5)CC4)CC3)CC2)C1 [Example 70, (2S,3S)-N-((S)-1-(4-((4-((1R,4S)-4-(((1R,2S,5R)-5-(isopropyl(methyl)amino)-2-((S)-2-oxo-3-((6-(trifluoromethyl)quinazolin-4-yl)amino)pyrrolidin-1-yl)cyclohexyl)carbamoyl)cyclohexyl)piperazin-1-yl)sulfonyl)piperidin-1-yl)-1-oxopropan-2-yl)-1-methyl-5-oxo-2-(pyridin-3-yl)pyrrolidine-3-carboxamide] | 0.1 | 30.51
4 | – | – | – | CC(C)N(C)[C@@H]1CC[C@H](N2CC[C@H](Nc3ncnc4ccc(C(F)(F)F)cc34)C2=O)[C@H](NC(=O)[C@H]2CC[C@@H](N3CCN(S(=O)(=O)C4CCN(C(=O)[C@H](C)NC(=O)[C@H]5CC(=O)N(C)[C@@H]5c5cccnc5)CC4)CC3)CC2)C1 [compound 71] | 0.794 | 35.25
